Assay results from patent US7871981B2, “Inhibition of cell motility, angiogenesis, and metastasis” (The United States of America as represented by the …, priority 1999, dated 2011).

Legend:
MDCK cells = experiment: Extracellular matrix invasion assay, MDCK cells in collagen gels; type: cell-based, canine; conditions: HGF 10 ng/ml, peptide 100 nM, 5 days
Method: MDCK cell invasion into three-dimensional collagen gels was analyzed as previously described. Briefly, type I collagen (1.5 mg/ml; Cohesion Technologies) was mixed with 10×MEM and sodium bicarbonate (11.76 mg/ml) at a ratio of 8:1:1 (vol:vol:vol) on ice, and 0.4 ml aliquots were dispensed into 16-mm tissue culture wells (Nunc), and allowed to gel at 37° C. for 20 min. Cells were seeded onto gels (1×10^4 cells/well) in 0.4 ml of growth medium containing HGF and/or peptides 1 or 4 as indicated. After 5 days, cells were fixed in situ in 2.5% glutaraldehyde in 0.1 M sodium cacodylate buffer (pH 7.4), and cells that had invaded the gel below the surface monolayer in ten randomly selected fields (1×1.4 mm) were counted microscopically using a 20× phase contrast objective. Depth of cellular invasion into the collagen gel was quantitated in the same ten fields per treatment group using a calibrated fine focusing micrometer. Values were compared using the Student's unpaired t-test and a significant value was taken as P<0.001. Results in Table 1 are shown as the mean number of invading cells/field or mean invasion depth/cell in microns+standard error of the mean.
MDCK cells were left untreated (Control), treated with HGF (10 ng/ml), or HGF+peptide 2 or 4 (100 nM), and invasion into collagen matrices was quantitated microscopically as described above. Values are the mean of at least 10 randomly selected fields±standard error of the mean. Epithelial Tube Formation Assay

PC3M cells = experiment: Growth rate and viability in culture of C-90 treated PC3M cells; type: cell-based, human; conditions: treated 24 h, three week study period
HUVE cells = experiment: HUVE cell migration, modified Boyden chamber; type: cell-based, human
Method: (§1) The migration assay of HUVE and HMEC-1 cells in modified Boyden chambers was adapted from previously described procedures (Murohara et al., Thromb. Vasc. Biol., 19: 1156-61 (1999), Malinda et al., FASEB J., 13: 53-62 (1999)). In brief, Biocoat Cell Environment control inserts (8 micron pore size; Becton Dickinson) were coated with 0.1% gelatin (Sigma) for at least 1 hour at 37° C. and air dried. Lower chambers contained 0.7 ml RPMI+0.1% BSA, to which 20 ng/ml HGF and/or 300 nM Grb2 inhibitors were added. Cells were pre-treated with the indicated concentrations of Grb2 inhibitors for 18-24 hours, trypsinized, washed twice in RPMI+0.1% BSA, added to upper chambers (5×10^4 cells/well) with or without inhibitors in a final volume of 0.5 ml, and incubated for 4 h at 37° C. Cells on the upper surface of each filter were removed with a cotton swab, while cells that had traversed to the bottom surface of the filter were fixed and stained using Diff-Quik (Dade Diagnostics) and counted using a 10× objective. Mean values from 4 randomly selected fields (1×1.4 mm) were calculated for each of triplicate wells per experimental condition. Shown in FIG. 6 is the ratio of growth factor-treated to control migrating cells designated on the y-axis as “Migration (Fold Increase)” or as the mean number of cells per optical field in FIGS. 8-11.

B16 mouse melanoma cells = experiment: Growth rate and viability in culture of C-90 treated B16 cells; type: cell-based; conditions: same study period
HMEC-1 cells = experiment: HMEC-1 cell migration, modified Boyden chamber; type: cell-based, human; conditions: VEGF
Method: as §1

NIH 3T3 fibroblasts = experiment: NIH 3T3 fibroblast migration, modified Boyden chamber; type: cell-based
Method: as §1
PDGF is implicated in different biological processes such vascular remodeling, wound healing and cancer (for reviews, see Bornfeldt et al., Ann N Y Acad. Sci., 766:416-30, 1995; Gendron, Surv. Ophthalmol., 44:184-5, 1999). Addition of 50 ng/ml PDGF-BB to NIH 3T3 fibroblasts incubated in a modified Boyden chamber results in a dramatic, 20-fold increase in cell migration. […] This observation opens a potential therapeutical use of the Grb2 inhibitor compounds in the treatment of diseases such as cancer, wound healing disorders, vascular complications of diabetes mellitus, vascular nephropathies, and diseases with occurrence of fibrosis.

HMVE cells = experiment: HMVE cell proliferation; type: cell-based, human
Method: HUVE or HMVE cells were seeded per triplicate in type I collagen-coated 48-well plates (Biocoat) (3000 cells/well) in […] of complete EGM-Bullet Kit medium (BioWhittaker, Walkersville, Md.), allowed to attach for 4 hr and incubated overnight with or without the indicated concentrations of peptide 2. The cultures were rinsed twice in serum-free medium and incubated with EBM medium (BioWhittaker) supplemented with 50 μg/ml heparin, 50 μg/ml ascorbic acid and 10% FCS. After either 4 days (HUVE) or 5 days (HMVE), cells were harvested with trypsin/EDTA and counted with an hemocytometer. The mean number of cells per ml was calculated from 3 independent measures for each of triplicate wells per experimental condition and compared to controls using the Student's unpaired t-test. Results set forth in FIG. 12 are described as the ratio of growth factor-treated to control proliferating cells designated on the y-axis as “Proliferation (Fold Increase)”.

TAC-2 cells = experiment: Epithelial tube formation assay, TAC-2 cells in collagen gels; type: cell-based
Method: TAC-2 cells were suspended in three-dimensional collagen gels at 1×10^4 cells/ml in collagen and incubated in complete medium containing HGF and/or Grb2 inhibitors as indicated. After 3 days, the cultures were fixed with 2.5% glutaraldehyde in 0.1 M cacodylate buffer, and at least 3 randomly selected fields per experimental condition in each of 3 separate experiments were digitally recorded with brightfield microscopy. The total length of the cords in each individual colony present in each optical field was measured with IPLab. Cord length was considered as “0” in: a) colonies with a spheroidal shape, and b) slightly elongated structures in which the length to diameter ratio was less than 2. The mean values for each experimental condition were compared to controls using the Student's unpaired t-test. Results in FIG. 5 are described as mean total cord length (in μm) per field.

SMILES: NC(=O)C[C@H](NC(=O)C1(NC(=O)[C@H](Cc2ccc(C(C(=O)O)C(=O)O)cc2)NC(=O)C(=O)O)CCCCC1)C(=O)NCCCc1cccc2ccccc12 [peptide 2, (N-oxalyl-4-malonyl)-Phe-Ac6c-Asn-NH-(3-naphthalen-1-yl-propyl)]
- Mean Invading Cells/Field (MDCK cells): 12.6 ± 1.9
- Mean Invasion Depth/Cell (MDCK cells): 17.9 ± 1.9 μm
- growth rate and viability in culture (PC3M cells): identical growth rate and viability as untreated cells
- VEGF-induced cell migration (HUVE cells; VEGF): significantly (p<0.001) reverted
- PMA-induced cell migration (HUVE cells; peptide 300 nM, PMA 40 ng/ml): dramatically reverted to basal levels
- cell viability or growth rate in culture (B16 mouse melanoma cells): no differences in cell viability or growth rate
- VEGF-induced cell migration (HMEC-1 cells): significantly (p<0.001) reverted
- PDGF-BB-induced NIH 3T3 cell migration (NIH 3T3 fibroblasts; co-added with PDGF-BB 50 ng/ml): inhibits NIH 3T3 cell migration in a significant (p<0.001), dose-dependent manner
- reduction in the mean number of cells per field (NIH 3T3 fibroblasts; peptide 30 nM, PDGF-BB 50 ng/ml): 60%
- HMVE cell growth (HMVE cells; peptide 30 nM, presence and absence of growth factors): basically resistant
- HMVE cell growth (HMVE cells; peptide 300 nM): highly significant (p<0.001) inhibition of cell growth
- HGF-induced elongation of epithelial tubes (cord length) (TAC-2 cells; HGF 20 ng/ml, 3 days): significantly (p<0.0001) abrogate
- concentration at which a sub-maximal inhibitory effect is already observed (TAC-2 cells; HGF-induced tube elongation): 30 nM
